Biological target: T1, BB0401 (GltPBb) (Borreliella burgdorferi, UniProt O51362)
T1 construct: gene BB_0401; full-length bb0401 ORF, IPTG-inducible from shuttle vector pibb0401 in chromosomal bb0401-deleted B. burgdorferi (bb0401^cond); intact cells; no tag mentioned
Assay: heavy-isotope uptake into conditional mutant with and without IPTG, LC-MS/MS
Type: cell-based
Conditions: BSK-II medium with unlabelled amino acids, 37 C, 2 h or 6 h uptake after 48 h or 7 d without inducer

T1 sequence (O51362 entry or part of it): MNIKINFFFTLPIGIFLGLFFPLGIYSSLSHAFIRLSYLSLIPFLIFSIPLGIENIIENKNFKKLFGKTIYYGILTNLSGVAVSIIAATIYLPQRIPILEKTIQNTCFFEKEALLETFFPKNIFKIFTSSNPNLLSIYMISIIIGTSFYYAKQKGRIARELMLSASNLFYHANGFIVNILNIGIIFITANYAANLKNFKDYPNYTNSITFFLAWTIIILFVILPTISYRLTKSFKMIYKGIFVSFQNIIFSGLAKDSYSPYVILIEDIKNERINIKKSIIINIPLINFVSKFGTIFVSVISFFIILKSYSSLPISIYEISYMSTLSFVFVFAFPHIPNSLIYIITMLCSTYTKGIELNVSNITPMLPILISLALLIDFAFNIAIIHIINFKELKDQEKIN

SMILES	heavy-isotope uptake into conditional mutant with and without IPTG, LC-MS/MS (labelled compound (13C4,15N1), 30 mg/L)	heavy-isotope uptake into conditional mutant with and without IPTG, LC-MS/MS (labelled compound (13C5,15N1), 86.2 mg/L)
N[C@@H](CC(=O)O)C(=O)O [heavy aspartate (^13C4,^15N1)]	more dramatic reduction in the amount of heavy labeled aspartate and glutamate imported	
N[C@@H](CCC(=O)O)C(=O)O [heavy glutamate (^13C5,^15N1)]		more dramatic reduction in the amount of heavy labeled aspartate and glutamate imported
